Experimental findings from patent US5955500A (G. D. Searle & Co., priority 1997, dated 1999) are described below.

In data set [1] the test system is isolated working rat heart.
The conditions of data set [2]: pH 5, individual replicates; listed as 100.

“And” between values parts separate entries of the source, which are not always exact repeats. Equal entries are not always repeated.

With `COc1ccc(CCN(C)CCC[C@@](C#N)(c2ccc(OC)c(OC)c2)C(C)C)cc1OC` [S-verapamil, reference compound], in data set [1] (S 100 ng/ml vs R 950 ng/ml), the “Reduction of peak systolic pressure and cardiac output, in words” value is reported as “more effective at reducing peak systolic pressure (FIG. 2b) as well as cardiac output”. Also, the “Nature of cardiac effect (inotropic / chronotropic)” value in data set [1] (S 100 ng/ml, R 950 ng/ml) is given as “primarily an inotropic drug”. Also, in data set [1] (S 100 ng/ml, R 950 ng/ml, R/S ratio 9.5), the “Heart rate (HR), significance vs predrug” value is “n.s”. Moreover, in data set [2], the Concentration in octanol is 5150 ng/mL and 5290 ng/mL and 5530 ng/mL; the Concentration in water was 4080 ng/mL and 4880 ng/mL and 6220 ng/mL.
